In patent US20220184060A1, “PHARMACEUTICAL COMPOSITION COMPRISING SPHERICAL AGGLOMERATES OF TIMAPIPRANT” (Chiesi Farmaceutici S.p.A., priority 2018, published 2022):
Several values for one entry are separate records, joined by “and”; a condition that tells them apart may be missing. Identical values can stand only once.

Experiments:
Assay type in all cases: physicochemical
[1] = Flowability of the blend material (API with tablet excipients) before compression; conditions: blend material of API with the excipients of Table 3; for Flow properties of the blend (in words): suitability for direct compression
Experimental: The spherical agglomerates of timapiprant or the micronized timapiprant, together with the microcrystalline cellulose, the croscarmellose sodium, the poloxamer, the sodium lauryl sulphate and the colloidal silicon dioxide in the above amounts, are sieved in a sieve of 1.2 mm. The lactose monohydrate is then added, and the resulting mixture is blended in a free fall blender for at least 15 minutes. The magnesium stearate is added to the obtained mixture which is further blended in the free fall blender for additional 3 minutes.

[2] = Specific surface area (SSA) by BET nitrogen adsorption (TriStar, Micromeritics); conditions: degassing 2 hours at 40° C.
Experimental: The specific surface areas (SSA) of spherical agglomerates of timapiprant obtained according to Examples 3, 5,7 and the micronized timapiprant were measured was determined by BET nitrogen adsorption using the TriStar of Micromeritics apparatus according to following parameters: • Isotherm, Adsorbing/Desorbing Run: 0 to 1 p/p0 • Vials: ⅜ Inch, Degassing Pre-analysis: 2 hours at 40° C., Nitrogen as adsorbate • Preparation: Evacuation Rate 10 mmHg/s; Unrestricted evacuation from 5 mmHg • Vacuum setpoint: 10 mmHg, Evacuation time: 1 hour • Leak Test Duration: 120 s, Outgas Test Duration: 180 s • Measure p0 at intervals during the analysis, Enter the analysis bath temperature: […]77 kelvin • Equilibration Interval: 5 s; Minimum Equilibration Delay at p/p0≥0,995 per 600 s.

[3] = Primary particle size distribution by laser diffraction (Malvern Mastersizer 2000) after break up of spherical agglomerates; conditions: for PSD d (0.1), mean result / PSD d (0.5), mean result: mean of 10 acquisitions, primary particles after sonication in water; for PSD d (0.1) / PSD d (0.5): single acquisition (Measure 1-10), primary particles, agglomerates dispersed in water by 10 minutes sonication, 1500 rpm
Experimental: The primary particle size distribution results are produced by means of a Malvern 2000 laser diffraction equipment by the analysis of the primary particles in suspension.
The particle size distribution laser diffraction measures were performed using a Malvern Mastersizer 2000 equipped with a Hydro 2000S cell for the wet suspension of the Timapiprant primary particles. The spherical agglomerates obtained according to the Examples 3 and 5, were dispersed in water by means of 10 minutes sonication and then added to the cell, previously filled with water, until an obscuration within 5-10% was obtained.

| Compound | Flowability (s/100 g) [1] | Flow properties of the blend (in words) [1] | SSA (specific surface area) [2] | SSA (specific surface area) ([2]; listed as micronized timapiprant) | PSD d (0.1), mean result [3] [μm] | PSD d (0.5), mean result [3] [μm] | PSD d (0.1) [3] | PSD d (0.5) [3] | Flowability (s/100 g) ([1]; listed as Spherical agglomerates of timapirpant) [sec s/100 g] |
| --- | --- | --- | --- | --- | --- | --- | --- | --- | --- |
| Cc1c(Cc2ccc3ccccc3n2)c2cc(F)ccc2n1CC(=O)O [Micronized Timapiprant, reference compound] | ∞ | very poor flow properties | 8.0 m^2/g and 7.8 m^2/g | less than 8.5 m^2/g | – | – | – | – | – |
| Cc1c(Cc2ccc3ccccc3n2)c2cc(F)ccc2n1CC(=O)O [Spherical agglomerates of timapiprant of Example 3] [5-fluoro-2-methyl-3-(quinolin-2-ylmethyl)-1H-indol-1-yl)acetic acid] | – | – | 13.1 m^2/g | – | 0.28 | 0.56 | 0.28 μm and 0.275 μm and 0.278 μm and 0.279 μm | 0.56 μm and 0.555 μm and 0.561 μm and 0.559 μm | – |
| Cc1c(Cc2ccc3ccccc3n2)c2cc(F)ccc2n1CC(=O)O [Spherical agglomerates of timapiprant of Example 5] [5-fluoro-2-methyl-3-(quinolin-2-ylmethyl)-1H-indol-1-yl)acetic acid] | – | good flowability | 10.1 m^2/g | – | 0.31 | 0.64 | 0.314 μm and 0.315 μm | 0.64 μm and 0.642 μm and 0.638 μm and 0.641 μm and 0.639 μm | 4 |
| Cc1c(Cc2ccc3ccccc3n2)c2cc(F)ccc2n1CC(=O)O [Spherical agglomerates of timapiprant of Example 7] [5-fluoro-2-methyl-3-(quinolin-2-ylmethyl)-1H-indol-1-yl)acetic acid] | – | – | 15.5 m^2/g | – | – | – | – | – | – |
